# Reference: patent US7727736B2, “Soluble phospholipids for use in clotting factor assays” (The University of North Carolina at Chapel Hill, priority 2003, dated 2010)
# What was measured:
# [1] = CMC of C6PS using ANS as fluorescent probe in the presence of factor IXa; format: physicochemical; settings: 200 nM factor IXa, 5 mM calcium
# factor IXa [2] = biological target: T1, factor IXa (Homo sapiens, UniProt P00740); assay: Binding of C6PS to Factor IXa detected by intrinsic fluorescence; settings: 0.20 μM factor IXa, 5 mM calcium, 22° C., single binding site model; read-out: stoichiometric Kd of C6PS binding to factor IXa
# T1 construct: intrinsic tryptophan fluorescence of factor IXa
# T1 sequence (P00740 47-191 limits assumed): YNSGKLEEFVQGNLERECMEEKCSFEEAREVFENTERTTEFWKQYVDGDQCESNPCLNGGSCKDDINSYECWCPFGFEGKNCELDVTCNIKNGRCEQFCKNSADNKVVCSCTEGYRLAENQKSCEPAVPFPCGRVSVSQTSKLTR
# T1 sequence (P00740 227-461 limits assumed): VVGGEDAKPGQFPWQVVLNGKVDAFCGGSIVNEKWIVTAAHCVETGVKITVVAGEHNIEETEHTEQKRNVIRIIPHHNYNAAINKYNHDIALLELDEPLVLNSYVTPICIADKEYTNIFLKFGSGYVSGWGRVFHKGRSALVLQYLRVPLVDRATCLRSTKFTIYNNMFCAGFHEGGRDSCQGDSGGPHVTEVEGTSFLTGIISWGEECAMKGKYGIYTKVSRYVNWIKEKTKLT
# Experimental: Integrated intrinsic fluorescence of 0.20 μM factor IXa in 50 mM Tris, 150 mM NaCl, 5 mM CaCl2, and 0.6% PEG, pH 7.5 was measured as a function of C6PS concentration at 22° C. to follow C6PS binding.
# factor IXa [3] = biological target: T1, factor IXa; assay: Amidolytic activity of factor IXa with increasing C6PS; format: biochemical; settings: 300 nM factor IXa, substrate Leu-PHG-Arg-pNA-AcOH; read-out: Kd from amidolytic activity of factor IXa
# Experimental: The assay was conducted in the presence of 1 mM Leu-PHG-Arg-pNA.AcOH and increasing concentrations of C6PS.
# factor VIIIa-IXa complex = biological target: T2, factor VIIIa-IXa complex (Homo sapiens, UniProt P00451+P00740); assay: Activation of factor X by factor IXa and factor VIIIa; format: biochemical; settings: in the presence of C6PS
# T2 construct: 2.5 nM factor IXa and 10 nM factor VIIIa
# T2 sequence (P00740 47-191 limits assumed): as the sequence (P00740 47-191 limits assumed) above
# T2 sequence (P00740 227-461 limits assumed): as the sequence (P00740 227-461 limits assumed) above
# T2 sequence (P00451 20-391 limits assumed): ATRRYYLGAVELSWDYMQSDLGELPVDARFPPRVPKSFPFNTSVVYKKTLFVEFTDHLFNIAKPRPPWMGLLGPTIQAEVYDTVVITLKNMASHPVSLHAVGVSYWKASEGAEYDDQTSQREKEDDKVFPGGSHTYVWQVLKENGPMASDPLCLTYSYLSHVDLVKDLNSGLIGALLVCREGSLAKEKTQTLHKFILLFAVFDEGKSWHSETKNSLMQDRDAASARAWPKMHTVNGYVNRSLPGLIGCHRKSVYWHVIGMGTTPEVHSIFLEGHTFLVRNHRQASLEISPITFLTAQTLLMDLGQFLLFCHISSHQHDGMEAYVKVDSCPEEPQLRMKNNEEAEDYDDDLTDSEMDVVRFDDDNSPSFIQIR
# T2 sequence (P00451 392-759 limits assumed): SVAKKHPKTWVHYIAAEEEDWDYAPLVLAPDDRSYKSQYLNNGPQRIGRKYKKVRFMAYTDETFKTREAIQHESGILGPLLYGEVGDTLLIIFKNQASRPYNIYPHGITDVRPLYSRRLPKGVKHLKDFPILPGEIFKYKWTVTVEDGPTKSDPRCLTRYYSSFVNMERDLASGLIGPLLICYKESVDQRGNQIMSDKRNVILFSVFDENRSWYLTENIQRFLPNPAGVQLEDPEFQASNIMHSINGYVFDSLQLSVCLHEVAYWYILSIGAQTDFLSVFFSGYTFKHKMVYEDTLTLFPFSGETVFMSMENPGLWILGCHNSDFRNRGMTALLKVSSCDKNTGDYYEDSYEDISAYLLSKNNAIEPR
# T2 sequence (P00451 1709-2351 limits assumed): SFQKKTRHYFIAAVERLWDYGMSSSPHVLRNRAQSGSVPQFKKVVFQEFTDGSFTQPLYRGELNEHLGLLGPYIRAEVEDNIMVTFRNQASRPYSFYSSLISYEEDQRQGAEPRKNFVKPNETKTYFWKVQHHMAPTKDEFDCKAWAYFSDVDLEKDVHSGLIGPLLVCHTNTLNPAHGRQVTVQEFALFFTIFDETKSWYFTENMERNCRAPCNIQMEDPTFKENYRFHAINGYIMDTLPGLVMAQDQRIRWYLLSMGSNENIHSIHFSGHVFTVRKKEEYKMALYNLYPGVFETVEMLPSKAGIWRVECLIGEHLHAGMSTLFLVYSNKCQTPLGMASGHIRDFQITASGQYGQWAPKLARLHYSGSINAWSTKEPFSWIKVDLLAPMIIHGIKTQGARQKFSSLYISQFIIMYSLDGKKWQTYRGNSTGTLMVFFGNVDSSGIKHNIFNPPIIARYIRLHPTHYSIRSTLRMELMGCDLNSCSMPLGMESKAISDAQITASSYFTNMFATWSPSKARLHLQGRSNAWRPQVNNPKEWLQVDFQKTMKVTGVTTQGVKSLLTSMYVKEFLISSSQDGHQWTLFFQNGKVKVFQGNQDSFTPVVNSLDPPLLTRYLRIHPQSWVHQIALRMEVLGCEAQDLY
# Experimental: The rate of activation of factor X by 2.5 nM factor IXa and 10 nM factor VIIIa in the presence of 600 μM C6PS was monitored at different concentrations of factor X (FIG. 13). The KM for this reaction was 66 nM, which is similar to that obtained with 30% PS/PC membranes (45 nM) (Larson et al. (1996) J. Biol. Chem. 271 3869).
# factor VIII = biological target: T3, factor VIII (Homo sapiens, UniProt P00451); assay: Chromogenic FVIII assay; format: biochemical; settings: normal pooled plasma (100% factor VIII), varying C6PS
# T3 construct: using normal pooled plasma (100% factor VIII); from tissue; host or cells: normal pooled plasma
# T3 sequence (P00451 20-391 limits assumed): as the sequence (P00451 20-391 limits assumed) above
# T3 sequence (P00451 392-759 limits assumed): as the sequence (P00451 392-759 limits assumed) above
# T3 sequence (P00451 1709-2351 limits assumed): as the sequence (P00451 1709-2351 limits assumed) above
# T3 sequence (P00740 47-191 partner limits assumed): as the sequence (P00740 47-191 limits assumed) above
# T3 sequence (P00740 227-461 partner limits assumed): as the sequence (P00740 227-461 limits assumed) above
# Experimental: For the chromogenic […], a standard curve was prepared by diluting normal pooled plasma (which had 1 U/mL […] according to the certification sheets) into […] to give levels of 100% factor VIII, 75%, 50%, 25%, and 10% along with the factor VIII deficient plasma, which has 0% factor VIII.
# Two mixtures were prepared. Mixture #1 consisted of thrombin—3 nM, factor IXa—3 nM, factor X—7.2 μg/mL, calcium—12 mM in a buffer of 20 mM Tris (pH 7.9), 150 mM NaCl. Also included in Mixture #1 were either lipid vesicles (lipid unilamellar vesicles; “LUV”)—20 μM or C6PS—2,625 μM. Mixture #2 consisted of hirudin—60 nM and Pefachrome FXa—1.8 mM in a buffer of 20 mM Tris (pH 7.9), 150 mM NaCl.
# Factor VIII levels were assayed by adding 25 μL plasma to 2000 μL of buffer. 50 μL of the diluted plasma, 100 μL Mixture #1, and […] were incubated at 37° C. for 3 minutes. […] Finally, 50 μL of Mixture #2 was added to diluted plasma+Mixture #1 and the reaction was monitored at 405 nm for 5 minutes. The rate is the change in absorbance between 30 seconds and 120 seconds expressed as mOD/minute. […]
# The effect of varying C6PS levels was also monitored as described above using normal pooled plasma (100% factor VIII), except that the concentration of C6PS in Mixture #1 was varied by serial dilution into buffer before being added to the final Mixture #1.
# FXa = FXa (Homo sapiens, UniProt P00742); settings: equilibrium dialysis; cited from earlier work
# Sequence of FXa (P00742 41-179 limits assumed): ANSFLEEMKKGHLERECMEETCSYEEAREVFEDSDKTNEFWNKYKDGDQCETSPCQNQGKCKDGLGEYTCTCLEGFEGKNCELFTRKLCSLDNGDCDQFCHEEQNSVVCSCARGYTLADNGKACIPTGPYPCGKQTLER
# Sequence of FXa (P00742 235-488 limits assumed): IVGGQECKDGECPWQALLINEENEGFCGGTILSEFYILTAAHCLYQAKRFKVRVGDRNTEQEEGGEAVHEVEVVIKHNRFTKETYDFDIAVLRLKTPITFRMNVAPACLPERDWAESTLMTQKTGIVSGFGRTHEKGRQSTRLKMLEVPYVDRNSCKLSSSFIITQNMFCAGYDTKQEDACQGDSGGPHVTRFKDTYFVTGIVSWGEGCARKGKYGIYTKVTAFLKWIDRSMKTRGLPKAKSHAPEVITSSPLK
# factor Va = biological target: T4, factor Va (Bos taurus, UniProt Q28107); settings: Zhai et al. (2002); read-out: kd of binding to factor Va; cited from earlier work
# T4 sequence (Q28107 29-741 limits assumed): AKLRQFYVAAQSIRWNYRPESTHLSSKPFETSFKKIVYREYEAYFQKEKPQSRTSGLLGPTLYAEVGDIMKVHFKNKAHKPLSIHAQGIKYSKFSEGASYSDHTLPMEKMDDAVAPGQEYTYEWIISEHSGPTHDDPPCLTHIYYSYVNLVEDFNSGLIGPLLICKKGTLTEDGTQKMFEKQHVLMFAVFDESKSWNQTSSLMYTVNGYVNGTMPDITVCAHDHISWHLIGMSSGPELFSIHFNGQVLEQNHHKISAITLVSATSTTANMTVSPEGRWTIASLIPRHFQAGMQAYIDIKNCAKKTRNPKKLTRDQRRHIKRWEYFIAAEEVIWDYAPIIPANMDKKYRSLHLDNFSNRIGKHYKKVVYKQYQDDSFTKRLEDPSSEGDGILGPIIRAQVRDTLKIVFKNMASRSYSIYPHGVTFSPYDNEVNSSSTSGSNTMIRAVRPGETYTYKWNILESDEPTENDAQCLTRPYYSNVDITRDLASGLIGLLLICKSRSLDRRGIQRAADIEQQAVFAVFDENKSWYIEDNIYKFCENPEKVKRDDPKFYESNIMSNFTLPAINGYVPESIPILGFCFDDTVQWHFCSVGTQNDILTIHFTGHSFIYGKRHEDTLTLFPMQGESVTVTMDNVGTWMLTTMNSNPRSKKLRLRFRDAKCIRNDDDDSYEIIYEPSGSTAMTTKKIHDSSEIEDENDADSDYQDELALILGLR
# T4 sequence (Q28107 1565-2211 limits assumed): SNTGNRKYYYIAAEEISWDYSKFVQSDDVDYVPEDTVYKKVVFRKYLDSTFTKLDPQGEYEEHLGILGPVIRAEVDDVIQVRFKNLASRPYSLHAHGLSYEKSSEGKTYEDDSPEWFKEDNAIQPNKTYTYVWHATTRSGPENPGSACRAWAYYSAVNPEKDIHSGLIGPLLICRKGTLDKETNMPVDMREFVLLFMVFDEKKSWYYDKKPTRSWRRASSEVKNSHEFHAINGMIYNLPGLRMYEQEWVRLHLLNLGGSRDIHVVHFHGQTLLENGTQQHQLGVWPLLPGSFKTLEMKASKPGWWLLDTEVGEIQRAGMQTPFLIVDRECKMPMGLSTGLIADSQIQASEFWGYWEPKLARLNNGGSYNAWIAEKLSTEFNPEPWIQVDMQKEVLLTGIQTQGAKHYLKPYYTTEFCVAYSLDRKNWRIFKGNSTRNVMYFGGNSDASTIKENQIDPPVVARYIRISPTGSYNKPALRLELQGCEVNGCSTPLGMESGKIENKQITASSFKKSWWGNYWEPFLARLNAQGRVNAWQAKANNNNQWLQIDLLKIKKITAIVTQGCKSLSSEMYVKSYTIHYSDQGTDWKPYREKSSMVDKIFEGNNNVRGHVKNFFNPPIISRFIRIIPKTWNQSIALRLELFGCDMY
compound,measurement,setting,value
"CCCCCC(=O)OC[C@H](COP(=O)(O)OC[C@H](N)C(=O)O)OC(=O)CCCCC [C6PS, 1,2-dicaproyl-sn-glycero-3-phospho-L-serine]",CMC of C6PS,[1],950 µM
same,Kd,factor IXa [2],~1.3 µM
same,Kd,factor IXa [3],130 µM
same,fold reduction of KM for factor X activation with the addition of VIIIa,factor VIIIa-IXa complex,5 fold
same,rate in FVIII chromogenic assay versus C6PS concentration,factor VIII,saturated
same,stoichiometry of C6PS binding to FXa at saturation,FXa,2
same,Kd,factor Va,~90 µM
